The values below come from the NIST ThermoML archive (doi:10.1016/j.jct.2016.08.033).

For data set [1] the following is noted: 303.15 K; 101.33 kPa; Liquid; Vibrating tube method.
Data set [2] in a line: refractive index (Na D-line) (dimensionless). The note with it: 303.15 K; 101.33 kPa; Liquid; Standard Abbe refractometry.

± gives the expanded uncertainty stated by the source.

A word on the mass density: it is mass per unit of volume. In general, refractive index refers to a measure of how strongly the sample bends light. Consider `CCCCCC[n+]1ccn(C)c1.O=S(=O)([N-]S(=O)(=O)C(F)(F)F)C(F)(F)F`, for which the mass density in data set [1] came out at 1367.17 ± 1.1 kg/m3. Moreover, the refractive index in data set [2] is listed as 1.42851 ± 0.0011.
`CCn1cc[n+](C)c1.O=S(=O)([N-]S(=O)(=O)C(F)(F)F)C(F)(F)F`: the mass density in data set [1] came to 1513.74 ± 1.2 kg/m3. The refractive index in data set [2] worked out at 1.42162 ± 0.0011.
Take `CCCC(=O)OC(C)CCC` (configuration not stated) [1-methylbutyl butanoate]: the mass density in data set [1] is given as 849.19 ± 1 kg/m3. The refractive index in data set [2] is on record as 1.40283 ± 0.0011.
`CCCC(=O)O` [butanoic acid]: in data set [1], the mass density is reported as 948.44 ± 1 kg/m3. Moreover, the refractive index in data set [2] turned out to be 1.39394 ± 0.0011.
The like results for `CCCC(C)O` (configuration not stated) [pentan-2-ol] were, in that order, 800.09 ± 2.1 kg/m3 and 1.40216 ± 0.0021.
As to `C=COC(=O)CCC` [vinyl butanoate], the mass density in data set [1] was 888.65 ± 1 kg/m3. In addition, in data set [2], the refractive index is reported as 1.40494 ± 0.0011.
